ChEMBL document CHEMBL1139228, “Saliniketals A and B, bicyclic polyketides from the marine actinomycete Salinispora arenicola” (J Nat Prod, 2007)
The source made the active and inactive calls. The calls are words filed in the database; no cut-off is given here.

Legend:
[1] = biological target: T1, Ornithine decarboxylase (Homo sapiens) (UniProt P11926); experiment: Inhibition of ornithine decarboxylase upto 1 mM
T1 sequence (whole entry): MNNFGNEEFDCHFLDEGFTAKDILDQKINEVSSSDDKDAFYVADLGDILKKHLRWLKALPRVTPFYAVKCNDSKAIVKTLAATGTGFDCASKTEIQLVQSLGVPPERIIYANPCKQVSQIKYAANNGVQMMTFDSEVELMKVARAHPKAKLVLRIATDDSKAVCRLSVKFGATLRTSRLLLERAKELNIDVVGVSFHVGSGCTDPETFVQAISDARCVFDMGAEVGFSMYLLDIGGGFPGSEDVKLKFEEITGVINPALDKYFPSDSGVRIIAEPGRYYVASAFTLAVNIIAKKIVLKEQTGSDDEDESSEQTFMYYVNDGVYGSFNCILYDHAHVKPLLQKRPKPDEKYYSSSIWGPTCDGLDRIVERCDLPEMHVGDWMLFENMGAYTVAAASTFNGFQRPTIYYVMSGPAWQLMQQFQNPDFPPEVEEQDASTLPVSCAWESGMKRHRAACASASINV

[2] = biological target: T1, Ornithine decarboxylase (Homo sapiens); experiment: Inhibition of ornithine decarboxylase induction expressed in T24 cells; assay type: cell-based; settings: T-24
[3] = Inhibition of DNA dependent RNA polymerase in prokaryotes

| Activity [1] | Activity [2] | Activity [3] | SMILES |
| --- | --- | --- | --- |
| inactive | inactive |  | C/C(=C/C=C/[C@H](C)[C@H](O)[C@@H](C)[C@@H](O)[C@@H](C)[C@@H]1O[C@@]2(C)CC[C@@H](O2)[C@H]1C)C(N)=O |
|  |  | Active | CO[C@H]1/C=C/O[C@@]2(C)Oc3c(C)c(O)c4c(O)c(cc(O)c4c3C2=O)NC(=O)/C(C)=C\C=C\[C@H](C)[C@H](O)[C@@H](C)[C@@H](O)[C@@H](C)[C@H](OC(C)=O)[C@@H]1C |
| inactive | inactive |  | C[C@H]([C@H](O)[C@H](C)[C@@H](O)[C@@H](C)/C=C/C=C(/CO)C(N)=O)[C@@H]1O[C@@]2(C)CC[C@@H](O2)[C@H]1C |
